# Source: patent US7598255B2 (Janssen Pharmaceutica NV, priority 2005, dated 2009)
# pKi: −log10 of the molar value. Counter-ions that a name gives are not always drawn.
# Columns and labels:
# rat 5-HT7a receptor = rat 5-HT7a receptor (Rattus norvegicus, UniProt P32305); test: Affinity for 5-HT7 receptor binding sites, radioligand binding with [3H]5-CT; conditions: membranes of HEK-293 cells with rat 5-HT7a, 1 nM [3H]5-CT
# Protocol: The affinity of the compounds described in this invention for the 5-HT7 receptor binding site was evaluated by single competition radioligand binding assay. The assay was performed on membranes prepared from HEK-293 cells that had been subjected to stable transfection with the rat 5-HT7a receptor (GB: NM022938). Cells were scraped from the culture plates, suspended in Tris-HCl 50 mM pH 7.5 and collected through centrifugation (1000 rpm for 5 min). The cell pellets were homogenized (Polytron, 15 s, setting 5) in 50 mM Tris-HCl (pH 7.5), 5 mM EDTA. Following centrifugation (15,000 rpm for 25 min), membranes (135 μg protein/mL) were resuspended in the same buffer and incubated for 60 min at RT with 1 nM [^3H]5-CT in the presence of increasing concentration of test compounds. Nonspecific binding was defined in the presence of 10 μM 5-HT. Incubation was stopped by rapid filtration using the cell harvester (Packard). Radioactivity was counted in a TopCount-NXT (Packard). Experiments were conducted in triplicate.
# [1] = target: T1, human recombinant 5-HT2C receptor (Homo sapiens, UniProt P28335); test: Affinity for 5HT2 receptor binding sites, h5-HT2C, [3H]mesulergine; conditions: CHO h5-HT2C membranes
# T1 sequence (P28335 33-458): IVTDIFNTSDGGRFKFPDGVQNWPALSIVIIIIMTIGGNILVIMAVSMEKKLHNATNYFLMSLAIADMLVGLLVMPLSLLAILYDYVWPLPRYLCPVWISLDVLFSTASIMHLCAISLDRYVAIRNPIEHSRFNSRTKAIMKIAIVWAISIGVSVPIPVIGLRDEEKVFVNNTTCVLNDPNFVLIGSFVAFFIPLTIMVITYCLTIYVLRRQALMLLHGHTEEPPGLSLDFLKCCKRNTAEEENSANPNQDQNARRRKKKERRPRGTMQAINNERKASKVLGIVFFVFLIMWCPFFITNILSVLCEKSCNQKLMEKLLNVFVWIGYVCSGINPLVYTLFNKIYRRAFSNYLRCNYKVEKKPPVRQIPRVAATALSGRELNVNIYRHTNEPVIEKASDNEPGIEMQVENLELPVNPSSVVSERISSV
# 5-HT2A receptor = 5-HT2A receptor (Homo sapiens, UniProt P28223); test: Affinity for 5-HT2A receptor binding sites, radioligand binding with [3H]ketanserin; conditions: read-out: Ki 5-HT2A, rat cortex membranes (assay 2) or NIH3T3 h5-HT2A membranes (assay 3), table does not say which
# Protocol: (§1) Sigmoidal inhibition curves were generated and fitted by nonlinear regression analysis (GraphPad Prism).
# The affinity of the compounds for the rat 5-HT2A receptor was evaluated by competitive radioligand binding assay using [^3H]ketanserine as the radioligand. […] Brain tissue (rat cortex) was homogenized in 20 volumes per wet weight tissue of Tris-HCl buffer (50 mM, pH 7.4). The total membrane fraction was collected by centrifugation and washed by subsequent centrifugation runs (25 min at 25,000 g at 4° C.). Membranes were re-suspended in Tris-HCl buffer (50 mM, pH 7.4) containing 1 nM [^3H]ketanserin. Non-specific binding was estimated in the presence of 10 μM risperidone. The incubation was terminated by rapid filtration over Whatman GF/B filters pre-soaked in 0.1% polyethylenimine, and one washing step with 1 mL ice-cold Tris-HCl buffer, pH 7.4.
# 5-HT2B receptor = 5-HT2B receptor (Homo sapiens, UniProt P41595); test: Affinity for 5HT2 receptor binding sites, h5-HT2B, [3H]mesulergine; conditions: CHO h5-HT2B membranes
# Sequence of 5-HT2B receptor (P41595 whole entry): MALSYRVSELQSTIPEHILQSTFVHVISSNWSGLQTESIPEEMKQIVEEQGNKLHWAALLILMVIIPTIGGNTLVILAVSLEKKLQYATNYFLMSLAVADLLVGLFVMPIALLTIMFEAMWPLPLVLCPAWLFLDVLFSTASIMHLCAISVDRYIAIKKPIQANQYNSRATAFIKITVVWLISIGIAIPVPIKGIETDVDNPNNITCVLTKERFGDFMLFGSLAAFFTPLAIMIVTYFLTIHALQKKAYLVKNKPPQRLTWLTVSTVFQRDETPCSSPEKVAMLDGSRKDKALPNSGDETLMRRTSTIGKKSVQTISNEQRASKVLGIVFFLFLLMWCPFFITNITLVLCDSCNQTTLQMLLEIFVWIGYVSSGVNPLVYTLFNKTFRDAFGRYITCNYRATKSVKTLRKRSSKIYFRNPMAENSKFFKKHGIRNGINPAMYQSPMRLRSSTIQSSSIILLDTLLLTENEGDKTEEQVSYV
# Protocol: as §1
# Receptor binding was performed using the human recombinant 5-HT2A (GB: X57830), 5-HT2B (GB: Z36748) and 5-HT2C (GB: M81778) receptors. The affinity of the compounds for the 3 different human 5-HT2 receptor subtypes was evaluated by competitive radioligand binding assays using [^3H]ketanserin (h5-HT2A) or [^3H]mesulergine (h5-HT2B and h5-HT2C). The assays were performed on membranes prepared from NIH3T3 stably transfected with h5-HT2A or CHO stably transfected with h5-HT2B and h5-HT2C.
# Sequence of rat 5-HT7a receptor (P32305 whole entry): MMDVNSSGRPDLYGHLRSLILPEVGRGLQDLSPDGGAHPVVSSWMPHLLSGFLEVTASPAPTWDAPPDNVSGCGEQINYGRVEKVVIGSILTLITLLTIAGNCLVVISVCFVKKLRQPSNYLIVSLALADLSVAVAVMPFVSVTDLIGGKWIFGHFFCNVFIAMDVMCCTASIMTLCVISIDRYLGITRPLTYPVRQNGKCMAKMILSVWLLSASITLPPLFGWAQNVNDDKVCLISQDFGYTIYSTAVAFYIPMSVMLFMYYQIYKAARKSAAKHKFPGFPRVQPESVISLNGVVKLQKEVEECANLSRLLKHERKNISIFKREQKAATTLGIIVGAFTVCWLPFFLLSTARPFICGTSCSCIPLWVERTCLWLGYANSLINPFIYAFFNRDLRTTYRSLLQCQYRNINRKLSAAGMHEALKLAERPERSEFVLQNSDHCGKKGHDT
Compound,pKi (rat 5-HT7a receptor),pKi [1],pKi (5-HT2A receptor),pKi (5-HT2B receptor)
"CC(C)Cc1nc2c(c(-c3cccs3)n1)CNCC2 [Example 35, 2-Isobutyl-4-thiophen-2-yl-5,6,7,8-tetrahydro-pyrido[4,3-d]pyrimidine]",6.30,5.70,7.15,6.40
"CC(C)Cc1nc2c(c(-c3ccncc3)n1)CNCC2 [Example 36, 2-Isobutyl-4-pyridin-4-yl-5,6,7,8-tetrahydro-pyrido[4,3-d]pyrimidine]",< 5.00,< 5.00,< 5.00,< 5.00
"Cc1ccc(-c2nc(CC(C)C)nc3c2CNCC3)cc1 [Example 38, 2-Isobutyl-4-p-tolyl-5,6,7,8-tetrahydro-pyrido[4,3-d]pyrimidine]",< 5.00,6.10,7.40,7.30
"Cc1cc(-c2nc(CC(C)C)nc3c2CNCC3)ccc1F [Example 39, 4-(4-Fluoro-3-methyl-phenyl)-2-isobutyl-5,6,7,8-tetrahydro-pyrido[4,3-d]pyrimidine]",< 5.00,< 5.00,6.82,< 5.00
"CC(C)Cc1nc2c(c(-c3ccc(C#N)cc3)n1)CNCC2 [Example 40, 4-(2-Isobutyl-5,6,7,8-tetrahydro-pyrido[4,3-d]pyrimidin-4-yl)-benzonitrile]",< 5.00,< 5.00,6.30,< 5.00
"COc1ccc(-c2nc(CC(C)C)nc3c2CNCC3)cc1 [Example 41, 2-Isobutyl-4-(4-methoxy-phenyl)-5,6,7,8-tetrahydro-pyrido[4,3-d]pyrimidine]",< 5.00,5.30,5.70,5.30
"CCC(C)c1nc2c(c(-c3ccccc3F)n1)CNCC2 (centres unmarked) [Example 42, 2-sec-Butyl-4-(2-fluoro-phenyl)-5,6,7,8-tetrahydro-pyrido[4,3-d]pyrimidine hydrochloride]",< 5.00,< 5.00,6.92,< 5.00
"CCC(C)c1nc2c(c(-c3cccc(F)c3)n1)CNCC2 (centres unmarked) [Example 43, 2-sec-Butyl-4-(3-fluoro-phenyl)-5,6,7,8-tetrahydro-pyrido[4,3-d]pyrimidine]",< 5.00,< 5.00,6.70,< 5.00
"CCC(C)c1nc2c(c(-c3ccc(OC)cc3)n1)CNCC2 (centres unmarked) [Example 44, 2-sec-Butyl-4-(4-methoxy-phenyl)-5,6,7,8-tetrahydro-pyrido[4,3-d]pyrimidine]",< 5.00,6.00,6.40,6.30
"CCC(C)c1nc2c(c(-c3ccc(OC(F)(F)F)cc3)n1)CNCC2 (centres unmarked) [Example 45, 2-sec-Butyl-4-(4-trifluoromethoxy-phenyl)-5,6,7,8-tetrahydro-pyrido[4,3-d]pyrimidine]",< 5.00,< 5.00,< 5.00,< 5.00
"Cc1nc2c(c(-c3ccc(Cl)cc3)n1)CCNCC2 [Example 51, 4-(4-Chloro-phenyl)-2-methyl-6,7,8,9-tetrahydro-5H-pyrimido[4,5-d]azepine]",< 5.00,5.05,6.33,6.85
"Cc1nc2c(c(-c3ccccc3)n1)CCNCC2 [Example 52, 2-Methyl-4-phenyl-6,7,8,9-tetrahydro-5H-pyrimido[4,5-d]azepine]",< 5.00,5.05,6.14,5.94
"Cc1nc2c(c(-c3cccc(Cl)c3)n1)CCNCC2 [Example 53, 4-(3-Chloro-phenyl)-2-methyl-6,7,8,9-tetrahydro-5H-pyrimido[4,5-d]azepine]",< 5.00,< 5.00,6.00,< 5.00
"Cc1ccc(-c2nc(C(C)C)nc3c2CCCNC3)cc1 [Example 66, 2-Isopropyl-4-p-tolyl-6,7,8,9-tetrahydro-5H-pyrimido[4,5-c]azepine hydrochloride]",6.52,6.84,8.10,7.52
"COc1ccc(-c2nc(C(C)C)nc3c2CCCNC3)cc1 [Example 67, 2-Isopropyl-4-(4-methoxy-phenyl)-6,7,8,9-tetrahydro-5H-pyrimido[4,5-c]azepine]",5.27,6.31,7.25,7.10
"CC(C)c1nc2c(c(-c3ccccc3)n1)CCCNC2 [Example 68, 2-Isopropyl-4-phenyl-6,7,8,9-tetrahydro-5H-pyrimido[4,5-c]azepine]",< 5.00,5.15,7.10,6.18
"c1ccc(Cc2nc3c(c(-c4ccccc4)n2)CCN(Cc2ccccc2)C3)cc1 [Example 72, 2,7-Dibenzyl-4-phenyl-5,6,7,8-tetrahydro-pyrido[3,4-d]pyrimidine]",< 5.00,< 5.00,6.89,< 5.00
"COc1ccc(-c2nc(Cc3ccccc3)nc3c2CCN(Cc2ccccc2)C3)cc1 [Example 73, 2,7-Dibenzyl-4-(4-methoxy-phenyl)-5,6,7,8-tetrahydro-pyrido[3,4-d]pyrimidine]",< 5.00,< 5.00,6.85,< 5.00
"CC(C)c1nc2c(c(-c3ccc(F)cc3)n1)CCN(Cc1ccccc1)C2 [Example 74, 7-Benzyl-4-(4-fluoro-phenyl)-2-isopropyl-5,6,7,8-tetrahydro-pyrido[3,4-d]pyrimidine]",< 5.00,< 5.00,7.33,5.72
"CC(C)c1nc2c(c(-c3ccccc3)n1)CCN(Cc1ccccc1)C2 [Example 75, 7-Benzyl-2-isopropyl-4-phenyl-5,6,7,8-tetrahydro-pyrido[3,4-d]pyrimidine]",5.30,< 5.00,7.15,5.52
"COc1ccc(-c2nc(Cc3ccccc3)nc3c2CCNC3)cc1 [Example 79, 2-Benzyl-4-(4-methoxy-phenyl)-5,6,7,8-tetrahydro-pyrido[3,4-d]pyrimidine]",6.52,6.05,6.94,6.36
"CC(C)c1nc2c(c(-c3ccccc3)n1)CCNC2 [Example 81, 2-Isopropyl-4-phenyl-5,6,7,8-tetrahydro-pyrido[3,4-d]pyrimidine]",< 5.00,5.22,7.60,6.35
"CC(C)c1nc2c(c(-c3ccc(F)cc3)n1)CCN(C)C2 [Example 84, 4-(4-Fluoro-phenyl)-2-isopropyl-7-methyl-5,6,7,8-tetrahydro-pyrido[3,4-d]pyrimidine hydrochloride]",< 5.00,5.30,7.85,6.40
"CC(C)c1nc2c(c(-c3ccccc3)n1)CCN(C)C2 [Example 85, 2-Isopropyl-7-methyl-4-phenyl-5,6,7,8-tetrahydro-pyrido[3,4-d]pyrimidine]",< 5.00,< 5.00,7.09,5.94
"Cc1cc(-c2nc(C(C)C)nc3c2CCN(Cc2ccccc2)C3)cs1 [Example 86, 7-Benzyl-2-isopropyl-4-(5-methyl-thiophen-3-yl)-5,6,7,8-tetrahydro-pyrido[3,4-d]pyrimidine hydrochloride]",5.05,< 5.00,7.00,5.39
"CC(C)c1nc2c(c(-c3ccsc3)n1)CCN(Cc1ccccc1)C2 [Example 87, 7-Benzyl-2-isopropyl-4-thiophen-3-yl-5,6,7,8-tetrahydro-pyrido[3,4-d]pyrimidine hydrochloride]",< 5.00,< 5.00,6.22,5.70
"Cc1cc(-c2nc(C(C)C)nc3c2CCNC3)cs1 [Example 88, 2-Isopropyl-4-(5-methyl-thiophen-3-yl)-5,6,7,8-tetrahydro-pyrido[3,4-d]pyrimidine hydrochloride]",6.26,6.73,7.89,7.22
"CC(C)c1nc2c(c(-c3ccsc3)n1)CCNC2 [Example 89, 2-Isopropyl-4-thiophen-3-yl-5,6,7,8-tetrahydro-pyrido[3,4-d]pyrimidine hydrochloride]",< 5.00,5.85,7.60,7.40
"Cc1cc(-c2nc(C(C)C)nc3c2CCN(C)C3)cs1 [Example 90, 2-Isopropyl-7-methyl-4-(5-methyl-thiophen-3-yl)-5,6,7,8-tetrahydro-pyrido[3,4-d]pyrimidine hydrochloride]",5.64,6.00,7.77,6.89
